Patent publication US9535057B2, “Method of in vivo screening for cardiac toxic agents using teleost” (CITY UNIVERSITY OF HONG KONG, priority 2007, dated 2017)

Test system: zebrafish embryos
Test: Cardiotoxicity screen in zebrafish embryos: heart rate and heart beat rhythm from video of blood circulation with power spectral analysis, and by direct examination of heart
Format: in vivo
Settings: 48-hpf zebrafish embryos, 2 μM haloperidol in egg medium, 4 hour incubation; direct examination of heart and power spectral analysis (FIG. 7); p<0.05 vs control
Description: Before videoing blood cell circulation, the teleost is immobilized on a surface, for example, glass slide or plastic petri dish. Immobilization medium can be agarose, agar or methyl-cellulose. The optimal concentration of agarose or agar used is 0.5% (w/v) or lower. The concentration of methyl-cellulose used is 2-4% (w/v). Teleosts should be oriented in their spontaneous lateral position.
A video imaging system consists of a microscope, either stereomicroscope or conventional light microscope, with low magnification objective (FIG. 1). […] Video recorded in medium, e.g. VCR tape or mini DV tape, or recorded in personal computer is converted back to readable format, such as AVI or WMV format, and stored in personal computer for further video image analysis. […]
Data analysis of the series of the amount of differential pixels obtained from video image analysis is performed by methods implemented in the home-made software. Data series of amount of differential pixels is analyzed by comprising power spectral analysis in which data series of differential pixels is decomposed by discrete Fourier transform. […] A total power value of the spectrum is calculated. […]
The embodiment is tested in wild type embryos at 52 hpf. […] Heart rate is determined from direct visual counting of the number of heart beats in 1 min. […] In addition, the cardiac rhythm is determined as the standard deviation of heart beat time interval. […]

O=C(CCCN1CCC(O)(c2ccc(Cl)cc2)CC1)c1ccc(F)cc1 [haloperidol] was tested. Which heart rate did it give?
The heart rate was “significantly decreased”.
